The record followed here is patent US20160008339A1, “PSORALEN DERIVATIVES FOR PREVENTING OR TREATING HEART FAILURE OR CARDIAC HYPERTROPHY” (MAX-DELBRUCK-CENTRUM FUR MOLEKULARE MEDIZIN, priority 2012, published 2016).

The structures appear in SMILES notation.

Test [1] concerns the target T1, AKAP-Lbc (guanine nucleotide exchange on RhoA) (Homo sapiens, UniProt Q12802).
T1 sequence (Q12802 1994-2333): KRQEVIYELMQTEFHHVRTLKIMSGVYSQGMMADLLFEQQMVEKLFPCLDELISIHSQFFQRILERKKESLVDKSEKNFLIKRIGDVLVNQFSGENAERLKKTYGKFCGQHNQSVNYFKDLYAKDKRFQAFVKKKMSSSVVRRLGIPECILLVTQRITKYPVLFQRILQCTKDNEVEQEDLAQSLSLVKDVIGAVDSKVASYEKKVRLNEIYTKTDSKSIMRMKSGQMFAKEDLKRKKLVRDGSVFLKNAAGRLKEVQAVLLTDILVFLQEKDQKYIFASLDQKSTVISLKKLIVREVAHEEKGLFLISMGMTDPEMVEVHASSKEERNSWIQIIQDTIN
Nature of the test: RhoGEF nucleotide exchange assay (GDP against mGTP on RhoA). To be noted: IC50 (fifty percent inhibition of nucleotide exchange), 15 min.
Method: Following the protocol of the RhoGEF exchange assay Biochem Kit, a nucleotide exchange experiment for AKAP-Lbc and RhoA was established. The fluorescence labelled nucleotide analogues 2′(3′)-O—(N-methylanthraniloyl)-guanosine diphosphate and 2′(3′)-O—(N-methylanthraniloyl)-guanosine triphosphate, hereinafter referred to mGDP and mGTP, were used for tracing the nucleotide exchange.
25 μl depletion buffer (100 mmol/L sodium phosphate, pH 7.4, 5 mmol/L EDTA, 200 mmol/L ammonium sulfate) with an excess of mGDP (5 mmol/L) were added to 200 μg recombinant his6-RhoA (25 μl) and incubated one hour at room temperature. Then, magnesium chloride (MgCl2) was added to a final concentration of 10 mmol/L.
By centrifugation with Vivaspin® 500 concentrator vials (MWCO 5 kDa, 10 min, 10000 rpm) and buffer (100 mmol/L sodium phosphate, pH 7.4, 100 mmol/L NaCl, protease inhibitor [cOmplete, Mini, EDTA-free protease inhibitor cocktaile]) RhoA-mGDP was washed twice and reduced to 100 μl. 1 μmol/L RhoA-mGDP and 0.5 μmol/L AKAP-Lbc DHPH in nucleotide exchange buffer (40 mmol/L Tris pH 7.5; 100 mmol/L NaCl; 20 mmol/L MgCl2, 100 μg/ml BSA) were used for the nucleotide exchange. The fluorescence measurements were performed in a micro plate reader (TECAN Safire) over a period of 15 min, whereby the fluorophore of mGDP was excited at 360 nm and the resulting fluorescence signal was determined at 440 nm.
At a concentration relation of 2 μmol/L protein and 1 μmol/L mGTP, an ideal fluorescence signal-to-noise-ratio was found in the nucleotide exchange buffer (40 mM Tris pH 7.5, 100 mmol/L NaCl, 20 mmol/L MgCl2, 100 μg/ml BSA). The fluorescence signal for mGTP was measured analogous to mGDP (λexc=360 nm; λem=440 nm) in a micro plate reader (TECAN Safire) over a period of 15 min. The experiment was performed in a 384-well plate.

The subject of test [2] is GαqRC and p63RhoGEF (Gαq coupled activation of RhoA). Nature of the test: Rhotekin-based precipitation of RhoA-GTP, HEK293 transfected with GαqRC / p63RhoGEF. The class given is cell-based, human. To be noted: 50 μmol/L. The protocol: HEK293 cells were seeded in 6-well plates. One day later the cells were transfected with the following plasmid DNAs:
After additional 24 hours the cells were treated with compound 31413 (50 μmol/L) or DMSO for 30 min at 37° C. Subsequently, the cells were lysed in precipitation buffer (50 mM Tris pH 7.4, 150 mmol/L NaCl, 4 mmol/L MgCl2; 10% v/v glycerol, 1% octylphenoxypolyethoxyethanol [IPEGAL]) and centrifugated 20000 g for two minutes to remove cell debris. 40 μl of the lysate were taken for the determination of the total RhoA content. The residual lysate was incubated with 40 μl GSH-sepharose coupled GST-rhotekin for one hour at 4° C. Then, the GSH-sepharose was washed twice with precipitation buffer, enriched with SDS-PAGE loading buffer and heated 5 min at 90° C. […] The ratio between total RhoA and Rho-GTP was densitometrically determined.
The activation state of RhoA was determined with a Rho binding region of the rhotekin protein, a Rho effector, immobilised on a sepharose bead in the presence and absence of compound 31413. […]
GTP-bound RhoA was detected by rhotekin precipitation (FIG. 3). The precipitation of RhoA from transfected HEK293 cells was performed with a rhotekin sepharose, and analysed with SDS-PAGE and immunoblotting with a RhoA specific antibody. […] The precipitated RhoA-GTP was separated with SDS-PAGE, blotted and detected with a specific anti-RhoA antibody.

With `COc1ccc(-c2coc3cc4oc(=O)c(C)c(C)c4cc23)cc1` [Compound 31413, 3-(4-methoxyphenyl)-5,6-dimethyl-furo[3,2-g]chromen-7-one], the midpoint of inhibition in test [1], the IC50, lay at 25.9 µM. Also, the “precipitated amount of RhoA-GTP” value in test [2] is “no difference”.
